Literature values in patent US7838281B2, “Sulfide bath” (Soothing Sulfur Spas, LLC, priority 2007, dated 2010).

Conditions: aqueous solution

pK for the HCO3^−/CO2 | SMILES | pK for the HS^−/S^−2
6.2 | O=C(O)O [HCO3^−] | –
– | S [HS^−] | 14
